What was measured:
[1] = Il Farmaco, Ed. Sc., 1978, 33, 713-720; cited from earlier work
[2] = tested on: AMPA receptor (rat cortex mRNA expressed in Xenopus oocytes); assay: excitatory currents induced by AMPA in Xenopus oocytes (voltage-clamp); format: cell-based, rat (male Wistar) receptors expressed in Xenopus oocytes; conditions: for EC2X (concentration which doubles the intensity of the current induced by AMPA alone) / EC5X (concentration which increases five-fold the intensity of the current induced by AMPA alone): Xenopus oocytes, rat cortex mRNA, agonist AMPA (30 mM [sic])
Description: Study of the excitatory currents induced by AMPA in Xenopus oocytes mRNAs are prepared from male Wistar rat cerebral cortex by the guanidium thiocyanate/phenol/chloroform method. The poly(A^+) mRNAs are isolated by chromatography on oligo-dT cellulose and injected at an amount of 50 ng per oocyte. The oocytes are left to incubate for 2 to 3 days at 18° C. in order to allow expression of the receptors, and are then stored at 8°-10° C. The electrophysiological recording is performed in a plexiglass® chamber at 20°-24° C. in OR2 medium (J. Exp. Zool., 1973, 184, 321-334) by the "voltage-clamp" method with 2 electrodes, a 3rd electrode placed in the bath serving as reference. All the compounds are applied via the incubation medium and the electric current is measured at the end of the period of application. The AMPA is used at a concentration of […]. The concentration which doubles (EC2X) or which increases five-fold (EC5X) the intensity of the current induced by AMPA alone (50 to 100 nA) is determined for each compound studied.

[3] = tested on: AMPA receptors of neuronal cells; conditions: Journal of Neurochemistry, 1992, 58, 1199-1204; cited from earlier work
[4] = tested on: slice of hippocampus (dentate gyrus EPSP); assay: excitatory postsynaptic potentials (EPSP) induced by electrical stimulation on a slice of hippocampus; format: cell-based, male Wistar rat; conditions: compared with reference compounds, racemic mixture and R isomer
Description: Study of the synaptic excitatory potentials induced by electrical stimulation on a slice of hippocampus
Transverse slices of hippocampus ([…]) from a male Wistar rat are prepared using a "tissue chopper" and then incubated for 45 minutes in calcium-free medium containing 10 mM Mg^++. They are then stabilized in Krebs adjusted to pH 7.35 and oxygenated with O2 /CO2 (95%/5%) at room temperature.
The slices are submerged at 35° C. and the excitatory postsynaptic potentials (EPSP) are recorded in the dendritic field of the […] of the dentate gyms during stimulation ([…]) every 30 seconds of the perforating route via a tungsten bipolar electrode.
The EPSPs are acquired and analyzed by means of an A-D converter, a TL-1 interface and "pCLAMP" software.
The amplitude and duration of the EPSPs are evaluated on the negative wave relative to the base current.
The compounds are applied for 10 to 20 minutes in the superfusion bath containing MgSO4 (1 mM) in order to block the activation of the NMDA receptors. The concentration increasing the amplitude of the EPSP by 50% (A50) is determined for each compound.

NMDA = assay: currents induced by NMDA in Xenopus oocytes (selectivity); format: cell-based, rat (male Wistar) receptors expressed in Xenopus oocytes
kainate (KA) = assay: currents induced by kainate (KA) in Xenopus oocytes (selectivity); format: cell-based, rat (male Wistar) receptors expressed in Xenopus oocytes

Row | SMILES | EC2X (concentration which doubles the intensity of the current induced by AMPA alone) [2] | EC5X (concentration which increases five-fold the intensity of the current induced by AMPA alone) [2] | also measured
1 | O=S1(=O)NC2CCCN2c2ccccc21 (racemic) [Racemic mixture, 5,5-Dioxo-2,3,3a,4-tetrahydro-1H-pyrrolo[2,1-c]-[1,2,4]benzothiadiazine, reference compound] | 60 µM | 160 µM | hypotensive and bradycardiac activities [1]: having hypotensive and bradycardiac activities
2 | COc1ccc(C(=O)N2CCCC2=O)cc1 [Aniracetam, reference compound] | 1300 µM | 5000 µM | modulation of AMPA receptors of neuronal cells [3]: positively modulating the AMPA receptors of neuronal cells
3 | CC1=NS(=O)(=O)c2cc(Cl)ccc2N1 [Diazoxide, reference compound] | 400 µM | 1000 µM | 
4 | O=S1(=O)N[C@H]2CCCN2c2ccccc21 [Example 1, (3aS)-5,5-Dioxo-2,3,3a,4-tetrahydro-1H-pyrrolo[2,1-c][1,2,4]benzothiadiazine] | 35 µM | 70 µM | increase of the amplitude of the EPSP [4]: increases the amplitude of the EPSP at lower doses than the reference compounds, the racemic mixture or the R isomer; potentiation of the current (NMDA agonist) (NMDA): no potentiation of the current is observed; EC2X, NMDA (NMDA; selectivity table, agonist NMDA): > 300 µM; potentiation of the current (KA agonist) (kainate (KA)): no potentiation of the current is observed; EC2X, KA (kainate (KA); selectivity table, agonist kainate (KA)): > 300 µM; potentiation of the excitatory effects of AMPA ([2]; compared with reference compounds, racemic mixture and R isomer): very strongly potentiates the excitatory effects of AMPA; EC2X, AMPA ([2]; selectivity table, agonist AMPA): 35 µM
5 | O=S1(=O)N[C@@H]2CCCN2c2ccccc21 [R isomer] | 300 µM | > 1000 µM | 

Source: patent publication US5536719A, “Benzothiadiazine compound” (Adir et Compagnie, priority 1994, dated 1996)
